The supplement of paper PMC6045584
± gives the standard deviation of the averaged measurements.

Tests used:
ERLOTINIB = compound: C#Cc1cccc(Nc2ncnc3cc(OCCOC)c(OCCOC)cc23)c1 [ERLOTINIB]; assay: surviving fraction relative to DMSO-only wells; higher = less growth inhibition; settings: exposure time: 5 days
Procedure, shortened: (§1)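 Each tumour cell line was screened three times, and only lines with replicate Pearson r >0.7 and median Z' >0.3 were kept. Cells in log phase were seeded at 250–500 per well in 384-well plates, left 24 hours, then exposed continuously for five days to inhibitors at 0.5, 1, 5, 10, 50, 100, 500 and 1000 nM. Viability was read as CellTiter-Glo luminescence, with surviving fraction normalised to the median of DMSO-only wells.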

ETOPOSIDE = compound: COc1cc([C@@H]2c3cc4c(cc3[C@@H](O[C@@H]3O[C@@H]5CO[C@@H](C)O[C@H]5[C@H](O)[C@H]3O)[C@H]3COC(=O)[C@H]23)OCO4)cc(OC)c1O [ETOPOSIDE]; assay: as above; settings: exposure time: 5 days
Procedure, shortened: as §1

Test System | surviving fraction (ERLOTINIB; 0.5 nM) | surviving fraction (ERLOTINIB; 1 nM) | surviving fraction (ERLOTINIB; 5 nM) | surviving fraction (ERLOTINIB; 10 nM) | surviving fraction (ERLOTINIB; 50 nM) | surviving fraction (ERLOTINIB; 100 nM) | surviving fraction (ERLOTINIB; 500 nM) | surviving fraction (ERLOTINIB; 1000 nM) | surviving fraction (ETOPOSIDE; 0.5 nM) | surviving fraction (ETOPOSIDE; 1 nM) | surviving fraction (ETOPOSIDE; 5 nM) | surviving fraction (ETOPOSIDE; 10 nM) | surviving fraction (ETOPOSIDE; 50 nM) | surviving fraction (ETOPOSIDE; 100 nM) | surviving fraction (ETOPOSIDE; 500 nM) | surviving fraction (ETOPOSIDE; 1000 nM)
22RV1 PROSTATE | 1.1 ± 0.11 | 1.01 ± 0.12 | 1.03 ± 0.048 | 1 ± 0.028 | 1.04 ± 0.072 | 0.956 ± 0.17 | 0.991 ± 0.18 | 1.08 ± 0.021 | 1.03 ± 0.084 | 1 ± 0.083 | 0.928 ± 0.059 | 0.939 ± 0.023 | 0.922 ± 0.046 | 0.747 ± 0.047 | 0.42 ± 0.034 | 0.345 ± 0.03
93VU HEADNECK | 1.1 ± 0.058 | 1.04 ± 0.095 | 1.1 ± 0.067 | 1.04 ± 0.12 | 1.06 ± 0.051 | 0.97 ± 0.15 | 0.514 ± 0.066 | 0.416 ± 0.034 | 1 ± 0.042 | 1.07 ± 0.033 | 1.11 ± 0.037 | 1.05 ± 0.15 | 1.03 ± 0.12 | 1.14 ± 0.12 | 0.953 ± 0.054 | 0.896 ± 0.021
143B BONE |  | 1.11 ± 0.067 | 1.13 ± 0.067 |  | 1.15 ± 0.053 | 1.17 ± 0.067 | 1.19 ± 0.14 | 1.15 ± 0.16 | 0.981 ± 0.021 | 0.993 | 1.01 ± 0.016 | 1.03 ± 0.012 | 1.01 ± 0.012 | 0.979 ± 0.079 | 0.484 ± 0.005 | 0.297
A549 LUNG |  | 1.06 ± 0.026 | 1.06 ± 0.027 | 1.056 ± 0.0021 | 1.05 ± 0.022 |  |  | 1.03 ± 0.029 | 0.989 ± 0.071 | 0.99 ± 0.074 | 0.988 ± 0.026 | 0.976 ± 0.05 | 1 ± 0.057 | 1.09 ± 0.057 | 0.958 ± 0.048 | 0.67 ± 0.017
ASKA SYNOVIAL | 1.12 ± 0.047 | 1.15 ± 0.07 | 1.18 ± 0.06 | 1.19 ± 0.036 |  | 1.15 ± 0.067 | 1.09 ± 0.033 | 0.987 ± 0.099 | 1.07 ± 0.14 | 0.949 ± 0.012 | 0.985 ± 0.052 | 0.881 ± 0.036 | 0.68 ± 0.049 | 0.453 ± 0.015 | 0.3413 ± 0.0023 | 0.319 ± 0.0085
BT20 BREAST | 1.22 ± 0.026 | 1.19 ± 0.11 | 1.19 ± 0.11 | 1.13 ± 0.069 | 1.08 ± 0.069 | 1.12 ± 0.034 | 1.03 ± 0.034 | 0.947 ± 0.081 | 1.13 ± 0.073 | 1.17 ± 0.089 | 0.936 ± 0.17 | 1.04 ± 0.13 | 0.995 ± 0.098 | 0.919 ± 0.14 | 0.454 ± 0.11 | 0.211 ± 0.052
BT549 BREAST | 0.973 ± 0.036 | 1.01 ± 0.15 | 1.06 ± 0.11 | 1.1 ± 0.12 | 1.19 ± 0.071 | 1.22 ± 0.047 | 1.13 ± 0.03 | 1.03 ± 0.069 | 0.976 ± 0.13 | 1.15 ± 0.075 | 1.06 ± 0.13 | 1.05 ± 0.12 | 0.939 ± 0.069 | 0.907 ± 0.13 | 0.32 ± 0.027 | 0.198 ± 0.034
CADOES1 SOFT TISSUE | 0.854 ± 0.09 | 0.853 ± 0.033 | 0.882 ± 0.11 | 0.839 ± 0.11 | 0.783 ± 0.073 | 0.829 ± 0.057 |  | 0.842 ± 0.077 | 0.948 ± 0.12 | 0.908 ± 0.12 | 0.966 ± 0.04 | 0.97 ± 0.024 | 0.819 ± 0.048 | 0.977 ± 0.023 | 0.735 ± 0.053 | 0.528 ± 0.069
CAL51 BREAST | 0.969 ± 0.04 | 0.993 ± 0.069 | 1.05 ± 0.067 | 1.02 ± 0.062 | 1.07 ± 0.045 | 1.07 ± 0.036 | 1.09 ± 0.059 | 1.061 ± 0.0043 | 0.951 ± 0.068 | 1.02 ± 0.022 | 0.956 ± 0.039 | 0.977 ± 0.049 | 0.929 ± 0.063 | 0.921 ± 0.019 | 0.305 ± 0.037 | 0.139 ± 0.011
CAL120 BREAST | 0.971 ± 0.033 | 0.964 ± 0.036 | 0.965 ± 0.041 | 0.963 ± 0.017 | 0.988 ± 0.012 | 0.976 ± 0.052 | 0.967 ± 0.035 | 0.958 ± 0.038 | 0.939 ± 0.036 | 0.933 ± 0.033 | 0.982 ± 0.016 | 0.973 ± 0.013 | 0.938 ± 0.035 | 0.939 ± 0.038 | 0.498 ± 0.1 | 0.356 ± 0.011
CASKI CERVIX | 0.908 ± 0.099 | 0.856 ± 0.053 |  | 0.8153 ± 0.0021 | 0.717 ± 0.049 | 0.547 ± 0.031 | 0.336 ± 0.013 | 0.239 ± 0.018 | 0.904 ± 0.037 | 0.934 ± 0.061 | 0.99 ± 0.035 | 0.939 ± 0.014 | 0.876 ± 0.051 | 0.86 ± 0.0087 | 0.303 ± 0.019 | 0.182 ± 0.0059
CHLA90 AUTONOMIC GANGLIA | 1.01 ± 0.059 | 0.963 ± 0.12 |  | 0.94 ± 0.041 | 0.984 ± 0.09 | 0.948 ± 0.079 | 0.856 ± 0.057 | 0.88 ± 0.036 | 0.964 ± 0.044 | 0.995 ± 0.043 | 0.978 ± 0.069 | 0.959 ± 0.042 | 0.925 ± 0.043 | 0.925 ± 0.043 | 0.557 ± 0.05 | 0.484 ± 0.02
CME SYNOVIAL | 1.29 ± 0.069 | 1.29 ± 0.052 | 1.32 ± 0.091 | 1.33 ± 0.17 | 1.44 ± 0.17 | 1.36 ± 0.12 | 1.29 ± 0.17 | 1.16 ± 0.17 | 1.18 ± 0.13 | 1.09 ± 0.048 | 1.13 ± 0.081 | 1.13 ± 0.13 | 0.766 ± 0.015 | 0.364 ± 0.04 | 0.265 ± 0.0095 | 0.369 ± 0.023
COLO320DM LARGE INTESTINE | 1.17 ± 0.18 | 0.993 ± 0.074 | 1.06 ± 0.094 | 1.09 ± 0.12 | 1.155 ± 0.011 | 1.02 ± 0.078 | 1.04 ± 0.039 | 0.99 ± 0.032 | 1.16 ± 0.034 | 1.05 ± 0.058 | 1.15 ± 0.044 | 1.05 ± 0.093 | 1.14 ± 0.046 | 1.05 ± 0.049 | 1.04 ± 0.03 | 0.962 ± 0.042
DU4475 BREAST | 0.965 ± 0.051 | 0.972 ± 0.086 |  |  |  | 1.17 ± 0.027 | 1.15 ± 0.14 | 1.02 ± 0.033 | 0.932 ± 0.028 | 0.97 ± 0.11 | 0.848 ± 0.075 | 0.7 ± 0.089 | 0.257 ± 0.1 | 0.146 ± 0.037 | 0.0573 ± 0.011 | 0.0397 ± 0.0084
H23 LUNG |  | 1.04 ± 0.038 | 0.998 ± 0.065 | 0.992 ± 0.055 | 0.774 ± 0.051 | 0.488 ± 0.016 | 0.349 ± 0.015 | 0.336 ± 0.015 | 0.988 ± 0.067 | 1.07 ± 0.053 | 1.01 ± 0.033 | 1.04 ± 0.056 | 1.11 ± 0.03 | 1.07 ± 0.04 | 0.565 ± 0.019 | 0.509 ± 0.02
HCC38 BREAST | 1.16 ± 0.22 | 1.22 ± 0.14 | 1.48 ± 0.025 | 1.29 ± 0.15 | 1.54 ± 0.15 | 1.17 ± 0.13 | 1.19 ± 0.2 | 1.1 ± 0.16 | 1.28 ± 0.31 | 1.19 ± 0.15 | 1.16 ± 0.18 | 1.17 ± 0.1 | 1.09 ± 0.054 | 1.21 ± 0.059 | 0.53 ± 0.067 | 0.316 ± 0.026
HCC70 BREAST | 1.1 ± 0.094 |  | 1.15 ± 0.071 | 1.06 ± 0.097 | 1.03 ± 0.066 | 0.992 ± 0.022 | 1.03 ± 0.044 | 0.952 ± 0.096 | 1.05 ± 0.078 | 0.995 ± 0.053 | 1.08 ± 0.044 | 1.09 ± 0.1 | 0.991 ± 0.13 | 1.09 ± 0.09 | 0.785 ± 0.077 | 0.578 ± 0.016
HCC78 LUNG | 0.768 ± 0.087 |  | 0.918 ± 0.11 | 1.02 ± 0.033 | 0.962 ± 0.18 |  | 0.767 ± 0.15 | 0.847 ± 0.1 | 0.952 ± 0.064 | 0.863 ± 0.27 | 1 ± 0.082 | 0.925 ± 0.16 | 0.841 ± 0.11 | 0.649 ± 0.099 | 0.0883 ± 0.027 | 0.089 ± 0.024
HCC202 BREAST | 1.37 ± 0.29 |  | 1.2 ± 0.2 | 1.2 ± 0.12 | 1.64 ± 0.29 | 1.32 ± 0.28 |  | 0.762 ± 0.15 | 1.08 ± 0.35 | 1.11 ± 0.12 | 1.17 ± 0.066 | 0.994 ± 0.18 | 1.14 ± 0.18 | 1.14 ± 0.22 | 0.84 ± 0.31 | 0.724 ± 0.13
HCC1806 BREAST | 1.04 ± 0.062 | 1.1 ± 0.067 | 1.13 ± 0.056 | 1.15 ± 0.061 | 1.2 ± 0.042 | 1.12 ± 0.037 | 0.656 ± 0.069 | 0.623 ± 0.025 | 0.883 ± 0.089 | 1.04 ± 0.14 | 1.05 ± 0.082 | 1.03 ± 0.075 | 1.14 ± 0.029 | 0.807 ± 0.067 | 0.182 ± 0.021 | 0.141 ± 0.0035
